PubChem BioAssay AID2005 (Sanford-Burnham Center for Chemical Genomics, 2009)
The source made the active and inactive calls.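 Rule for the calls: active = plate Z score at or below -3, or inhibition of at least 30% at 20 µM; inactive = the rest.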

Assay: EGFP reporter destabilization counter-screen – F442A EGFP cells, fluorescence, counter-screen for p/CIP destabilizer project, dose response (AID 2005);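 note: cells express EGFP alone from a CMV promoter as a counter screen for p/CIP-EGFP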
Conditions: F442A EGFP cells, EGFP fluorescence, 16 h, stronger effect = higher value

Structure (SMILES) | inhibition (EGFP decrease, at 10 µM) | inhibition (at 20 µM)
CCc1cccc(C)c1NC(=O)CCNC(=O)c1cccc(C)c1 | 12.2% | 12.9% (inactive)
Cc1ccc(-c2nc(CS(=O)CC(=O)NC3CCC(C)CC3)c(C)o2)cc1 (stereo not drawn) | 27.4% | -4.5% (inactive)
CCOC(=O)CSc1nc2ccccc2c(=O)n1CCCCCC(=O)NCc1ccco1 | 8.4% | 5.8% (inactive)
O=C(Oc1ccccc1-c1nnco1)c1ccccc1 | 31% | -29.2% (inactive)
Cc1cc(C)cc(N2C(=O)N(c3ccccc3C)C3CS(=O)(=O)CC32)c1 (stereo not drawn) | 9.1% | 28.7% (inactive)
COc1ccc(CNC(=O)C(c2ccc(C)o2)N(Cc2cccs2)C(=O)Cc2cccs2)cc1 (stereo not drawn) | 33.3% | 25.5% (inactive)
Cc1ccc(NC(=S)NC(NC(=O)c2ccco2)C(Cl)(Cl)Cl)cc1 (stereo not drawn) | 6.3% | 31.9%
Cc1cc(NC(=O)CSCC(=O)OCc2nnc(-c3ccccc3)o2)no1 | -7.9% | -12.8% (inactive)
CCN(C(=O)COC(=O)c1cc(NS(=O)(=O)c2ccc(Cl)c([N+](=O)[O-])c2)ccc1O)C1CCCCC1 | 13.6% | 6.6% (inactive)
CCOc1ccc(N(CC(=O)N2CCOCC2)S(=O)(=O)c2ccc(Cl)cc2)cc1 | 12.8% | 14.1% (inactive)
CCN1CCN(Cc2ccc(NC(=O)c3cc(NC(=O)c4cncc(-c5ccc(C#N)cc5)c4)cc(OC)c3)cc2C(F)(F)F)CC1 | 3% | 11.7% (inactive)
COC(=O)Cn1cc(C(=O)c2cccs2)c2ccccc21 | 27.1% | 14.5% (inactive)
Cc1cccc(-c2nnc3n2N=C(c2ccccc2Br)CS3)c1 | 18.2% | 10.8% (inactive)
CC(NC(=O)c1c(F)cccc1Cl)c1ccc(-n2ccnc2)cc1 (stereo not drawn) | 35.7% | 24.4% (inactive)
COc1ccc(CCNC(=O)C2CCN(S(=O)(=O)c3cccs3)CC2)cc1OC | 34.9% | 25.1% (inactive)
Cn1cc(/C=C(\C(=O)O)C(C(=O)O)=C2CCCCC2)c2ccccc21 | 13.9% | 17.2% (inactive)
CC1CN(C(=O)c2cn3ccccc3n2)CC(C)O1 (stereo not drawn) | 9.8% | 22.5% (inactive)
O=C1NC(Cc2c[nH]c3ccccc23)C(=O)N1CCOc1ccc(F)cc1 (stereo not drawn) | 11.9% | 9.1% (inactive)
CC(Oc1ccc(Cl)cc1)C(=O)NCC1CCCO1 (stereo not drawn) | 20.8% | -7.4% (inactive)
Cc1ccc(NC(=S)Nc2cccc3cnccc23)cc1 | 2.1% | 26.8% (inactive)

Structure (SMILES) | inhibition (EGFP decrease, at 10 µM) | inhibition (at 20 µM)
COCCC(=O)N1CCC(Oc2ccc(C(=O)N3CCCCCCC3)cc2)CC1 | 1.3% | 14% (inactive)
CCOCCCNC(=O)c1cc2c(=O)n3cccc(C)c3nc2s1 | -2.1% | 12.9% (inactive)
O=C(NC1=NCCS1)c1ccc(N2CCCC2=O)cc1 | -10.3% | -1.1% (inactive)
Cc1ccc(-c2nnc(CSc3nc(C)nc4sc(C)c(C)c34)o2)cc1 | 12.1% | 14.3% (inactive)
COc1cc(OC)cc(C(=O)NCC(=O)OCC(=O)N2CCc3ccccc32)c1 | 8.9% | 20.7% (inactive)
CCC1CCCCN1C(=O)NC(=O)c1ccccc1 (stereo not drawn) | 14.3% | 5.4% (inactive)
O=C(CCCn1c(=O)c2cccn2c2cccnc21)NCc1cccc(Br)c1 | -13.6% | 2.1% (inactive)
CC(C(=O)N1c2ccccc2CCc2ccccc21)n1nnc(-c2ccc(N(C)C)cc2)n1 (stereo not drawn) | 15.2% | 6.8% (inactive)
CC(C)C(=O)Nc1nnc(SCC(=O)NCc2cccs2)s1 | 11.1% | 12% (inactive)
Cc1ccsc1C(=O)OCC(=O)N1CCc2ccccc2C1 | 5% | 13.3% (inactive)
CS(=O)(=O)N(CC(=O)N1CCN(Cc2ccc3c(c2)OCO3)CC1)c1ccc2c(c1)OCO2 | 15.1% | -15.1% (inactive)
CCNS(=O)(=O)c1ccc(OC)c(C(=O)NC2CCCCC2)c1 | 1.8% | 27.8% (inactive)
CC(OC(=O)C1CSC2(c3ccc(F)cc3)CCC(=O)N12)C(=O)NC(N)=O (stereo not drawn) | 48.2% | -5.1% (inactive)
CCOC(=O)N1CCN(c2ccc(C(C)=O)cc2F)CC1 | 10.1% | -6.2% (inactive)
CCOc1ccc(CC(=O)Nc2ccc(S(=O)(=O)Nc3cc(C)on3)cc2)cc1OCC | 7.6% | 10.1% (inactive)
CCN(CC(=O)N1CCOCC1)S(=O)(=O)c1ccccc1 | 7.2% | -27.6% (inactive)
COc1ccc(N2CCN(C(=O)c3cn(C)c(=O)c4c3c3ccccc3n4C)CC2)cc1 | 6.2% | 20.1% (inactive)
COc1ccccc1-c1cn[nH]c(=S)n1 | 24.4% | 8.7% (inactive)
O=C(c1ccccc1)N1CCCC(c2nc3c(nnn3Cc3ccccc3)c(=O)[nH]2)C1 (stereo not drawn) | 32.3% | 16.2% (inactive)
